From BigSolDB 2.1

CCCCCCCCC(=O)NCc1ccc(O)c(OC)c1
solubility (mole fraction)
Conditions | in DMSO | in MTBE | in acetone | in acetonitrile | in ethyl acetate | in methanol | in n-hexane | in water
293.2 K | 0.257 | 0.019 | 0.161 | 0.0118 | 0.0625 | 0.219 | 4.06e-05 | 1.64e-05
298.2 K | 0.315 | 0.0472 | 0.229 | 0.0357 | 0.117 | 0.28 | 7e-05 | 1.93e-05
303.2 K | 0.403 | 0.114 | 0.299 | 0.0943 | 0.199 | 0.349 | 0.000119 | 2.32e-05
308.2 K | 0.495 | 0.27 | 0.39 | 0.232 | 0.309 | 0.428 | 0.000189 | 2.71e-05
313.2 K | 0.595 | 0.427 | 0.499 | 0.38 | 0.421 | 0.489 | 0.000296 | 3.24e-05
318.2 K | 0.671 | 0.569 | 0.6 | 0.553 | 0.566 | 0.583 | 0.000457 | 3.7e-05
323.2 K | 0.763 | 0.729 | 0.714 | 0.714 | 0.712 | 0.736 | 0.000595 | 4.27e-05
